# Experimental data published in ChEMBL document CHEMBL1201862, “PubChem BioAssay data set” (2004).
# Calls of active or inactive are those of the source.
# How the values were obtained:
# cells [1] = assay type: functional, cell-based; settings: HEK-CNG
# [2] = HepG2 cell cytotoxicity, dose response, cytotoxicity control for Shn3 inhibitor project, CellTiter-Glo, cherry-picked (AID 624134); assay type: functional, cell-based
# Galanin receptor type 3 = molecular target: T1, Galanin receptor type 3 (Homo sapiens, UniProt O60755); test: Fluorescence-based cell-based primary high throughput dose response assay to identify antagonists of the Galanin Receptor 3 (GalR3).; assay type: functional
# T1 sequence (O60755 whole entry): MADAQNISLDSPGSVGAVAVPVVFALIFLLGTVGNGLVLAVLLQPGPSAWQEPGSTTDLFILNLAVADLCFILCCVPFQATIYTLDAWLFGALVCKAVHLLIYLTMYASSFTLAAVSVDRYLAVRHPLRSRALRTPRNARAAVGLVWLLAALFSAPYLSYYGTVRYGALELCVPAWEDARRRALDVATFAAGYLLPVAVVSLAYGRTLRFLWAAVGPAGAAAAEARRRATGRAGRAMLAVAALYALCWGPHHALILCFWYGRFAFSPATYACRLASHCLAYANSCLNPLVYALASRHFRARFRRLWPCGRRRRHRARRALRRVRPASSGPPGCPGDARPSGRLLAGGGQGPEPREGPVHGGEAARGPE
# [3] = Shn3 3'UTR reporter inhibitors, dose response, cell-based, Clone20 osteoblasts, firefly luciferase, cherry-picked (AID 624132); assay type: functional;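 further: firefly luciferase luminescence from reporter carrying the Shn3 3'UTR in osteoblasts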
# [4] = control 3'UTR Renilla luciferase suppression, dose response, counter-screen for Shn3 inhibitor project, cell-based, Clone20-Shn3RL, cherry-picked (AID 624133); assay type: functional
# [5] = molecular target: T2, COUP transcription factor 2 (Homo sapiens, UniProt P24468); test: Luminescence-based cell-based high throughput dose response assay to identify inhibitors of COUP-TFII (NR2F2).; assay type: functional;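 further: HEK293 cells transiently cotransfected with COUP-TFII expression vector and reporter; luciferase reporter luminescence driven by COUP-TFII from the pX2-168 reporter plasmid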
# T2 sequence (P24468 whole entry): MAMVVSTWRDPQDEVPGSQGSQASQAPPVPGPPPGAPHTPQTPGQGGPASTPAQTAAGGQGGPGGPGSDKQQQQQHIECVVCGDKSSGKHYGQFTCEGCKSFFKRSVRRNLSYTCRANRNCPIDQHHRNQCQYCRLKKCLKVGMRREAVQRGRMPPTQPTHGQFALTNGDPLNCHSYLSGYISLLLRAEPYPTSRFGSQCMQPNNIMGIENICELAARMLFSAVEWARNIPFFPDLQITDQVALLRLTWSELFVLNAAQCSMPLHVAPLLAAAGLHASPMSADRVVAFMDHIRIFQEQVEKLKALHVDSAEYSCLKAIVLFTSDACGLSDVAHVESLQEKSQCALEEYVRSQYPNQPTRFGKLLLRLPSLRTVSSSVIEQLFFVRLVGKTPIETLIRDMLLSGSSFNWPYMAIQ
# [6] = THP-1 cell cytotoxicity, dose response, cytotoxicity control for Vif-APOBEC3G degradation inhibitor project, THP-1 cells (AID 1117359); assay type: functional; settings: Human immunodeficiency virus 1, THP-1
# [7] = A549 cell cytotoxicity, dose response, cytotoxicity control, plate reader, cherry-pick, antagonist series (AID 743412); assay type: functional, cell-based
# [8] = HepG2 cell cytotoxicity, dose response, cytotoxicity control, plate reader, cherry-pick, antagonist series (AID 743416); assay type: functional, cell-based
# [9] = LGR2 antagonists, dose response, cell-based, HEK293, CRE-luciferase reporter, cherry pick, set 2 (AID 743343); assay type: functional;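 further: transfected cells were stimulated with diluted bursicon conditioned medium after compound addition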
# [10] = MC4R antagonists, dose response, counter-screen for LGR2 antagonist project, cell-based, plate reader, cherry pick (AID 743444); assay type: functional;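 further: transfected HEK 293 cells stimulated with alpha-MSH peptide; potency of inhibitors of the alpha-MSH evoked signal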
# [11] = molecular target: Nuclear receptor subfamily 5 group A member 2 (Homo sapiens, UniProt O00482); assay type: functional, cell-based;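 further: HEK293T cells transfected with LRH-1 and a StAR promoter luciferase reporter; potency for inhibitors that lower LRH-1 driven reporter light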
# Nuclear receptor subfamily 5 group A member 2, sequence (O00482 whole entry): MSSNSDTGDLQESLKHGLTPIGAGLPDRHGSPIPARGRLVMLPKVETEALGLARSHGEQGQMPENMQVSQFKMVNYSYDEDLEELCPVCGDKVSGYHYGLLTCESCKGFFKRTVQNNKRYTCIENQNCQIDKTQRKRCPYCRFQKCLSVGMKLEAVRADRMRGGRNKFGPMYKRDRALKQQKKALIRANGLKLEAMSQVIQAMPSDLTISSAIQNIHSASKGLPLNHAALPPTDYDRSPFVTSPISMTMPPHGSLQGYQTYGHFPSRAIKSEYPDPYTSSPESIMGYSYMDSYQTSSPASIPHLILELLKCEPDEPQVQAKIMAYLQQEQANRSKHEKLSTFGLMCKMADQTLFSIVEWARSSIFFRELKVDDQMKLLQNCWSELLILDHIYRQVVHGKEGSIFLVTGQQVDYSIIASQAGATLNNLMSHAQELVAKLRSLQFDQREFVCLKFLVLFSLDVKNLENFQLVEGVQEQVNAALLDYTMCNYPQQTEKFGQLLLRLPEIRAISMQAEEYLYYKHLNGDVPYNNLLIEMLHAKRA
# [12] = inhibitors of intracellular T. cruzi replication, confirmation, NIH3T3 host cells, beta-gal luminescence (AID 2044); assay type: functional, cell-based;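 further: intracellular parasites grown in NIH/3T3 mouse fibroblasts as host cells; luminescent beta-galactosidase reporter signal from transgenic T. cruzi replicating inside host cells; inhibitors lower the luminescence signal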
# cells [13] = test: cells
# [14] = cytotoxicity toward NIH3T3 fibroblasts, dose response, counter-screen, cell-based, ATP luminescence, mouse fibroblasts (AID 2010); assay type: functional;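 further: cells exposed to compound for about 90 hours before reading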
# Steroidogenic factor 1 = Steroidogenic factor 1 (Homo sapiens, UniProt Q13285); test: Counterscreen for inverse agonists of the liver receptor homolog-1 (LRH-1; NR5A2): Luminescence-based cell-based high throughput dose response assay to identify inverse agonists of the Steroidogenic Factor 1 Nuclear Receptor (SF1; NR5A1).; assay type: functional
# Steroidogenic factor 1, sequence (Q13285 whole entry): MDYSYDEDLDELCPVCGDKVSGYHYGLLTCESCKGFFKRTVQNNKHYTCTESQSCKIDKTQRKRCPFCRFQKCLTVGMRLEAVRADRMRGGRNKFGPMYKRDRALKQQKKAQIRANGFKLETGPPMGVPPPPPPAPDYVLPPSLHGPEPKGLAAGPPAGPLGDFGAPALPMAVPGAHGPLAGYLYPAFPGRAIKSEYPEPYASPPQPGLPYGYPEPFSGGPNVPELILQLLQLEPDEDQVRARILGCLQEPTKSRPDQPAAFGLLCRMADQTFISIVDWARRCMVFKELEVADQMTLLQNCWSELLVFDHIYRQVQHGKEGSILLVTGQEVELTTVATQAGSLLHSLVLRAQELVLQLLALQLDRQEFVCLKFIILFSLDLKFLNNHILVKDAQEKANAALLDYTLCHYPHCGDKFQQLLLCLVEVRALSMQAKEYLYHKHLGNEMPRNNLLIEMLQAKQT
# [15] = StAR promoter reporter inhibition counter-screen, dose response, counter-screen for LRH-1 inverse agonist project, cell-based, luminescence, luciferase reporter (AID 651969); assay type: functional
# [16] = P. falciparum late gametocyte killing, dose response, luminescence (AID 1117278); assay type: functional, cell-based;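 further: gametocytes exposed to compound for 24 hours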
# [17] = Luminescence Cell-Based Dose Confirmation HTS to Identify Inhibitors of Platelet Dense Granule Release. [Related pubchem assays: 1663 (Primary HTS), 1678 (Summary of Project)]; assay type: functional
# [18] = tested on: Streptococcus sp. 'group A'; test: growth inhibition of control SK(-) GAS strain, dose response, counter-screen for streptokinase expression inhibitor project, luminescence, kanamycin, BacTiterGlo, confirmation (AID 1900); assay type: functional, organism-based
# Streptococcus = test: Group A Streptococcus viability loss, dose response, counter-screen for streptokinase expression inhibitor project, luminescence, BacTiterGlo (AID 1915); assay type: functional, organism-based;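 further: potency for reduction of bacterial viability or growth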
# [19] = molecular target: Luciferin 4-monooxygenase (Photinus pyralis, UniProt P08659); test: firefly luciferase enzyme inhibitors, dose response, biochemical, luminescence (AID 1891)
# Luciferin 4-monooxygenase, sequence (P08659 whole entry): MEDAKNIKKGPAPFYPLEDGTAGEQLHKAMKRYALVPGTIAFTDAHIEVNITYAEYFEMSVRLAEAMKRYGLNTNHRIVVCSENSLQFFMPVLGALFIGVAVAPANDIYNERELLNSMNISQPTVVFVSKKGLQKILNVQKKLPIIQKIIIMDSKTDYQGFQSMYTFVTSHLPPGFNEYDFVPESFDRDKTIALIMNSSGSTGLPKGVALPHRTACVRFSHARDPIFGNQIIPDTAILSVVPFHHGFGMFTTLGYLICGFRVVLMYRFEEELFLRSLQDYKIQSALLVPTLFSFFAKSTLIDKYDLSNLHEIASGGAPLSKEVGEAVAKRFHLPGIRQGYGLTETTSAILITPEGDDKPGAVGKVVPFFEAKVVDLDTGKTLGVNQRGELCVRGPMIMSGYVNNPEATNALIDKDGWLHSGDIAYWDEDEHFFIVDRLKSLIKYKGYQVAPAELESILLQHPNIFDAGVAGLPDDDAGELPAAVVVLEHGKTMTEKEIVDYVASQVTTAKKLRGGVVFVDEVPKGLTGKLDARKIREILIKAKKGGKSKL
# [20] = Jurkat T cell cytotoxicity, dose response, cytotoxicity control for P. falciparum gametocyte viability project, luminescence (AID 1117277); assay type: functional, cell-based;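 further: potency reflects loss of cellular ATP meaning fewer viable cells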
# [21] = P. falciparum 3D7-ScDHODH growth inhibitors, dose response, SYBR Green, dry powder samples (AID 1159570); assay type: functional, cell-based;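 further: parasite growth measured after 72 hours of compound exposure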
# [22] = P. falciparum Dd2 growth inhibitors, dose response, SYBR Green, dry powder samples (AID 1159566); assay type: functional, cell-based;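 further: potency for growth inhibition with lower SYBR green DNA signal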
# [23] = HepG2 cell cytotoxicity, dose response, cytotoxicity control, plate reader, dry powder samples (AID 1159569); assay type: functional, cell-based;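 further: inhibitor potency with signal falling toward the positive control level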
# [24] = P. falciparum ATP4 D1247Y mutant growth inhibitors, dose response, NITD609-resistant line, SYBR Green, dry powder (AID 1159571); assay type: functional, cell-based;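 further: parasites synchronized at ring stage by sorbitol before testing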
# [25] = P. falciparum Dd2 growth inhibitors, dose response, SYBR Green, cherry-picked samples (AID 1159567); assay type: functional, cell-based
# Beta-galactosidase = Beta-galactosidase (Escherichia coli, UniProt Q8VNN2); test: beta-galactosidase enzyme inhibitors and activators, dose response, artefact control for CCR6 antagonist project, biochemical, E. coli enzyme, set 3 (AID 504712); assay type: functional
# Beta-galactosidase, sequence (Q8VNN2 whole entry): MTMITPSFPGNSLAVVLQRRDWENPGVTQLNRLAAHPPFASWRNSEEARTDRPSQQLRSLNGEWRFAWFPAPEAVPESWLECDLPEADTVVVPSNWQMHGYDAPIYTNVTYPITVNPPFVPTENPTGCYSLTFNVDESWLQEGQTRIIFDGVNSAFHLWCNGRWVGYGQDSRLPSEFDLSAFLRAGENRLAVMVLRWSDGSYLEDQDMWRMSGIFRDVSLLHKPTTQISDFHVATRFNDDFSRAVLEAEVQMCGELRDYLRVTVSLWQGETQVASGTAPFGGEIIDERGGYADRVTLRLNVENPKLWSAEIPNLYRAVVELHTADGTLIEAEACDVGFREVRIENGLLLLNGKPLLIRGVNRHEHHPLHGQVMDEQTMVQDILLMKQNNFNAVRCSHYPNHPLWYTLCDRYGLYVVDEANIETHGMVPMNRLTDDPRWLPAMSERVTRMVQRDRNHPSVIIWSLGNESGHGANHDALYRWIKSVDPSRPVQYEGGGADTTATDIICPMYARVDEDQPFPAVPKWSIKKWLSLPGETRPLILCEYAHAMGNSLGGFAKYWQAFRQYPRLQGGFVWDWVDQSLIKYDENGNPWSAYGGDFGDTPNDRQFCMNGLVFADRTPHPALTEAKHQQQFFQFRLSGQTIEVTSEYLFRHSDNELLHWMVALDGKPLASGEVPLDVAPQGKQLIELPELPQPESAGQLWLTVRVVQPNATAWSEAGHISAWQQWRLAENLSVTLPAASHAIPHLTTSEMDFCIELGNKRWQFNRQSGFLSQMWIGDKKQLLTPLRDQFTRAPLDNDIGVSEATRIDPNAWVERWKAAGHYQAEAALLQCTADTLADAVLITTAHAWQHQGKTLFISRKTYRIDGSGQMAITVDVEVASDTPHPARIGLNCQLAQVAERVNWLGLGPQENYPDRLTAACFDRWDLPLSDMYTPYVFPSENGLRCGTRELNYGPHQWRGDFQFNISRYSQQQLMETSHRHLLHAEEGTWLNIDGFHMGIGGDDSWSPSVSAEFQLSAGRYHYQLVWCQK
# HEK293 [26] = test: cells; assay type: functional, cell-based; settings: Homo sapiens
# fMet-Leu-Phe receptor = molecular target: T3, fMet-Leu-Phe receptor (Homo sapiens, UniProt P21462); test: FPR ligands, dose response (AID 519); assay type: functional
# T3 sequence (P21462 whole entry): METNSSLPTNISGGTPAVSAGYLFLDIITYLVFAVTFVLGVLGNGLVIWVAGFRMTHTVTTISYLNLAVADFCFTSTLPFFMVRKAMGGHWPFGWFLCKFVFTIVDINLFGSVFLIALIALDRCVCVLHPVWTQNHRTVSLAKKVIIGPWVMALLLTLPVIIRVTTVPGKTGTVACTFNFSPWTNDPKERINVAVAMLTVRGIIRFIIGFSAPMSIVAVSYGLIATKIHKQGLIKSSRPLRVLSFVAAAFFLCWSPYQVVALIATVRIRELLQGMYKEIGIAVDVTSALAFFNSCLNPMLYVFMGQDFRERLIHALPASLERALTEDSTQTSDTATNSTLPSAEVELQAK
# HEK293 [27] = test: cells; assay type: functional, cell-based; settings: Homo sapiens; remark: listed apart in the source
# Streptokinase A = molecular target: T4, Streptokinase A (Streptococcus pyogenes serotype M1, UniProt P10520); test: S. pyogenes streptokinase expression inhibitors, potency, dose response, plasminogen activation absorbance, OD405 (AID 1914); assay type: functional, Streptococcus pyogenes M1 GAS;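 further: secreted streptokinase activity via plasminogen activation per viability signal from cell pellet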
# T4 sequence (P10520 whole entry): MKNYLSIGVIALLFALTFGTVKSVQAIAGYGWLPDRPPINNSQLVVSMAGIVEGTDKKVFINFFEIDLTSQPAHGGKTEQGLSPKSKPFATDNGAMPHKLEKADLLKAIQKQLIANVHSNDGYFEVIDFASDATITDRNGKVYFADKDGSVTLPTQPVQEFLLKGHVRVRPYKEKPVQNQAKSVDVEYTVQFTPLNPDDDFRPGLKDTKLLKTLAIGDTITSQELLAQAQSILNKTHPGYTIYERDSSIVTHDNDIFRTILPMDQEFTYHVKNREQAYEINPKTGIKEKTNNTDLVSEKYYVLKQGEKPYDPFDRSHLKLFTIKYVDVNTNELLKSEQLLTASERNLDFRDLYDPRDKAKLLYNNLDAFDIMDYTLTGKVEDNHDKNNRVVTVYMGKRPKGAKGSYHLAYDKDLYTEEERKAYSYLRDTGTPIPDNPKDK
# HEK293 [28] = test: NOD1 signaling inhibitors, primary screen, cell-based, luminescence, uHTS (AID 1578); assay type: functional; settings: Homo sapiens
# HEK293 [29] = test: NOD2 signaling inhibitors in MDP-stimulated cells, cell-based, uHTS, luminescence (AID 2001); assay type: functional; settings: Homo sapiens
# Prothrombin = Prothrombin (Homo sapiens, UniProt P00734); test: Thrombin 1536 HTS Dose Response Confirmation. [Related pubchem assays: 1046 (Thrombin 1536 HTS; hits were confirmed in this assay)]; assay type: functional
smiles,measurement,setting,value
S=C(NCCc1ccccc1)Nc1cccc2cnccc12,EC50,cells [1],> 29.9 µM (inactive)
same,AC50,[2],2.49 µM (active)
same,IC50,Galanin receptor type 3,1.66 µM (active)
same,AC50,[3],922 nM (active)
same,AC50,[4],1.05 µM (active)
same,IC50,[5],7.44 µM (active)
O=C(c1cc(COc2ccc(F)cc2F)on1)N1CCN(C2CCCC2)C(=O)C1,CC50,[6],> 40 µM (active)
Cc1ccnc(Nc2nc(-c3sc(C)nc3C)cs2)c1,EC50,cells [1],> 30 µM (inactive)
same,AC50,[7],25.3 µM (active)
same,IC50,Galanin receptor type 3,> 30 µM (inactive)
same,AC50,[8],10.4 µM (active)
same,AC50,[9],17.6 µM (active)
same,AC50,[10],33.5 µM (active)
same,IC50,[5],12.6 µM (inactive)
Cc1onc(-c2cccc(Cl)c2Cl)c1C(=O)ON=C(N)c1ccc([N+](=O)[O-])o1,IC50,[11],198 nM (active)
same,EC50,[12],< 100 nM (active)
same,EC50,cells [13],11 nM (active)
same,EC50,[14],11.6 µM (active)
same,IC50,Steroidogenic factor 1,49.2 nM (active)
same,IC50,[15],35.9 µM (inactive)
O=C(Nc1ccncc1)Nc1ccc(Br)cc1Cl,EC50,[12],< 100 nM (active)
same,EC50,cells [13],75 nM (active)
same,EC50,[14],> 60 µM (not active)
CCC(=O)Oc1ccc(-c2nc(-c3cccnc3)no2)cc1,IC50,[16],28.8 µM (inactive)
same,EC50,[17],435 nM (active)
same,EC50,[18],7.51 µM (active)
same,EC50,Streptococcus,9.17 µM (active)
same,EC50,[19],4.33 µM (active)
same,IC50,[20],> 83.3 µM (inactive)
O=[N+]([O-])c1cc(-c2nc3nc4ccccc4nc3n2CCc2ccccc2)cc([N+](=O)[O-])c1,EC50,[12],< 100 nM (active)
same,EC50,cells [13],273 nM (active)
same,EC50,[14],> 60 µM (not active)
C[C@@H]1CN([C@@H](C)CO)S(=O)(=O)c2ccc(/C=C/c3ccccc3)cc2O[C@H]1CN(C)C(=O)C1CC1,AC50,[21],3.43 µM (active)
same,AC50,[22],2.18 µM (active)
same,AC50,[23],79.2 µM (active)
same,AC50,[24],2.64 µM (active)
same,AC50,[25],2.37 µM (active)
COc1cccc(OC)c1OCCCCN1CCC(Cc2ccccc2)CC1,IC50,[16],> 109 µM (inactive)
same,IC50,[20],> 83.3 µM (inactive)
CCc1ccc(CNCCc2ccc(F)cc2)cc1,EC50,[12],< 100 nM (active)
same,EC50,cells [13],43 nM (active)
same,EC50,[14],> 30 µM (not active)
COc1ccc2nc(Nc3nc(C)c(C(C)=O)s3)sc2c1,IC50,Beta-galactosidase,> 66.6 µM (inactive)
same,EC50,[18],3.37 µM (active)
same,Ki,fMet-Leu-Phe receptor,> 66.7 µM (inactive)
same,IC50,HEK293 [27],> 20 µM (inactive)
same,EC50,Streptokinase A,> 150 µM (not active)
same,EC50,Streptococcus,17.8 µM (active)
same,EC50,HEK293 [28],14.3 µM (active)
same,IC50,HEK293 [29],8.11 µM (inactive)
Cn1ccnc1C(O)c1ccco1 (stereo unspecified),IC50,[16],> 109 µM (inactive)
same,IC50,[20],> 83.3 µM (inactive)
COC(=O)C1(S(=O)(=O)c2cccc3nsnc23)CC1,Ki,fMet-Leu-Phe receptor,> 66.7 µM (inactive)
COc1ccc(S(=O)(=O)NC(C)C(=O)Nc2cccc(C(C)=O)c2)cc1 (stereo unspecified),Ki,fMet-Leu-Phe receptor,> 66.7 µM (inactive)
same,IC50,Prothrombin,> 50 µM (not active)
COc1cccc(NC(=O)N(C)C[C@@H]2Oc3cc(C#Cc4ccc(F)cc4)ccc3S(=O)(=O)N([C@H](C)CO)C[C@@H]2C)c1,AC50,[21],1.17 µM (active)
same,AC50,[22],0.815 µM (active)
same,AC50,[23],> 100 µM (inactive)
same,AC50,[24],0.95 µM (active)
same,AC50,[25],1.63 µM (active)
